The values below come from patent US20130150325A1, “3-(Fluorovinyl)pyrazoles and their use” (BAYER INTELLECTUAL PROPERTY GMBH, priority 2011, published 2013).

The structures appear in SMILES notation.

For this experiment, the system named is HCT 116 cells transfected with a luciferase reporter under the control of an HIF-responsive sequence. The experiment in a line: HIF-luciferase assay. It counts as cell-based. The settings on record: Homo sapiens; HCT 116 HIF-luciferase reporter cells, hypoxia chamber (1% O2), 24 h; in some cases means of up to four individual determinations. Put shortly: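 Stably transfected HCT 116 cells, plated overnight under normoxia, were exposed to test substances (0-10 μmol/l) for 24 h at 1% O2. Luminescence was read 5 min after adding luciferase reagent, with normoxic cells as background controls. IC50 derived from the hypoxia-driven signal.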
A general note: Reporter assays use an easily measured gene product as a stand-in for the process of interest.
In the case of `Cc1cc(/C(F)=C/c2ccc(OC(F)(F)F)cc2)nn1Cc1cccc(C2(O)CC2)c1` [Example 48, 1-{3-[(3-{(Z)-1-Fluoro-2-[4-(trifluoromethoxy)phenyl]vinyl}-5-methyl-1H-pyrazol-1-yl)methyl]-phenyl}cyclopropanol], the IC50 worked out at 2 nM. That is a single-digit nanomolar value.

Consider `Cc1cc(/C(F)=C/c2ccc(C3(C(F)(F)F)CC3)cc2)nn1Cc1cccc(N2CC(O)C2)c1` [Example 17, 1-[3-({3-[(Z)-1-Fluoro-2-{4-[1-(trifluoromethyl)cyclopropyl]phenyl}vinyl]-5-methyl-1H-pyrazol-1-yl}methyl)phenyl]azetidin-3-ol], for which the IC50 is 1 nM.

In turn, `CNc1ccc(Cn2nc(/C(F)=C/c3ccc(SC(C)(C)C(=O)N4CCCC4)cc3)cc2C)cn1` [Example 93, 2-({4-[(Z)-2-Fluoro-2-(5-methyl-1-{[6-(methylamino)pyridin-3-yl]methyl}-1H-pyrazol-3-yl)-vinyl]phenyl}sulphanyl)-2-methyl-1-(pyrrolidin-1-yl)propan-1-one] had a 50% inhibitory concentration (IC50) of 5 nM.

`CC(=O)OC1(c2cccc(Cn3nc(/C(F)=C/c4ccc(C(C)(C)C(F)(F)F)cc4)cc3C)c2)CC1` [Example 44, 1-{3-[(3-{(Z)-1-Fluoro-2-[4-(1,1,1-trifluoro-2-methylpropan-2-yl)phenyl]vinyl}-5-methyl-1H-pyrazol-1-yl)methyl]phenyl}cyclopropyl acetate] had an IC50 of 0.5 nM. Against the preceding molecule, the IC50 is about 10-fold lower.

Turning to `Cc1cc(/C(F)=C/c2ccc(C(C)(C)C(F)(F)F)cc2)nn1Cc1cccc(C2(CO)CC2)c1` [Example 57, (1-{3-[(3-{(Z)-1-Fluoro-2-[4-(1,1,1-trifluoro-2-methylpropan-2-yl)phenyl]vinyl}-5-methyl-1H-pyrazol-1-yl)methyl]phenyl}cyclopropyl)methanol], the IC50 amounted to 1 nM. This IC50 lies about 2-fold higher than the previous one.

On to `CNc1ccc(Cn2nc(/C(F)=C/c3ccc(CC(C)C)cc3)cc2C)cn1` [Example 90, 5-({3-[(Z)-1-Fluoro-2-(4-isobutylphenyl)vinyl]-5-methyl-1H-pyrazol-1-yl}methyl)-N-methyl-pyridine-2-amine], for which the midpoint of inhibition, the IC50, lay at 2 nM.

`Cc1cc(/C(F)=C/c2ccc(C(F)(F)F)cc2)nn1Cc1cccc(C(=O)N2CCCC2)c1` [Example 30, {3-[(3-{(Z)-1-Fluoro-2-[4-(trifluoromethyl)phenyl]vinyl}-5-methyl-1H-pyrazol-1-yl)methyl]-phenyl}(pyrrolidin-1-yl)methanone] showed an IC50 of 6 nM. This IC50 is about 3-fold higher than that of the molecule before.

As for `Cc1cc(/C(F)=C/c2ccc([Si](C)(C)C)cc2)nn1Cc1ccnc(N2CCN(C3CC3)CC2)c1` [Example 106, 1-Cyclopropyl-4-{4-[(3-{(Z)-1-fluoro-2-[4-(trimethylsilyl)phenyl]vinyl}-5-methyl-1H-pyrazol-1-yl)methyl]pyridin-2-yl}piperazine], the IC50 came to 0.5 nM. This IC50 is about 12-fold lower than that of the molecule before.

Turning to `COC(=O)c1cccc(Cn2nc(/C(F)=C/c3ccc([Si](C)(C)C)cc3)cc2C)c1` [Example 23, Methyl 3-[(3-{(Z)-1-fluoro-2-[4-(trimethylsilyl)phenyl]vinyl}-5-methyl-1H-pyrazol-1-yl)methyl]benzoate], the IC50 was 1 nM.

`Cc1cc(/C(F)=C/c2ccc(OC(F)(F)F)cc2)nn1Cc1cccc(C(=O)N2CCOCC2)c1` [Example 31, {3-[(3-{(Z)-1-Fluoro-2-[4-(trifluoromethoxy)phenyl]vinyl}-5-methyl-1H-pyrazol-1-yl)methyl]-phenyl}(morpholin-4-yl)methanone] showed an IC50 of 3 nM.

Regarding `CCNC(=O)C(C)(C)Sc1ccc(/C=C(\F)c2cc(C)n(Cc3ccc(NC)nc3)n2)cc1` [Example 92, N-Ethyl-2-({4-[(Z)-2-fluoro-2-(5-methyl-1-{[6-(methylamino)pyridin-3-yl]methyl}-1H-pyrazol-3-yl)vinyl]phenyl}sulphanyl)-2-methylpropanamide], the IC50 amounted to 5 nM. This IC50 is about 1.7-fold higher than that of the molecule before.

The molecule `Cc1cc(/C(F)=C/c2ccc(OC(F)(F)F)cc2)nn1Cc1cccc(C(F)(F)CO)c1` [Example 61, 2,2-Difluoro-2-{3-[(3-{(Z)-1-fluoro-2-[4-(trifluoromethoxy)phenyl]vinyl}-5-methyl-1H-pyrazol-1-yl)methyl]phenyl}ethanol] returned an IC50 of 4 nM.

Regarding `Cc1cc(/C(F)=C/c2ccc(SC(F)(F)F)cc2)nn1Cc1cccc(C(=O)N2CCCC2)c1` [Example 27, [3-({3-[(Z)-1-Fluoro-2-{4-[(trifluoromethyl)sulphanyl]phenyl}vinyl]-5-methyl-1H-pyrazol-1-yl}methyl)phenyl](pyrrolidin-1-yl)methanone], 4 nM corresponded to half-maximal inhibition (IC50). This lies in the single-digit nanomolar range.

With `CNc1ccc(Cn2nc(/C(F)=C/c3ccc([Si](C)(C)C)cc3)cc2C)cn1` [Example 86, 5-[(3-{(Z)-1-Fluoro-2-[4-(trimethylsilyl)phenyl]vinyl}-5-methyl-1H-pyrazol-1-yl)methyl]-N-methylpyridine-2-amine], the IC50 came out at 0.3 nM.

`Cc1cc(/C(F)=C/c2ccc(C(C)(C)C(F)(F)F)cc2)nn1Cc1cccc(C2(O)CC2)c1` [Example 49, 1-{3-[(3-{(Z)-1-Fluoro-2-[4-(1,1,1-trifluoro-2-methylpropan-2-yl)phenyl]vinyl}-5-methyl-1H-pyrazol-1-yl)methyl]phenyl}cyclopropanol] had an IC50 of 0.8 nM.

On to `CNc1ccc(Cn2nc(/C(F)=C/c3ccc(C4CCCCC4)cc3)cc2C)cn1` [Example 88, 5-({3-[(Z)-2-(4-Cyclohexylphenyl)-1-fluorovinyl]-5-methyl-1H-pyrazol-1-yl}methyl)-N-methylpyridine-2-amine], for which the IC50 is 2 nM.

`CC(=O)OC1(c2cccc(Cn3nc(/C(F)=C/c4ccc(OC(F)(F)F)cc4)cc3C)c2)CC1` [Example 43, 1-{3-[(3-{(Z)-1-Fluoro-2-[4-(trifluoromethoxy)phenyl]vinyl}-5-methyl-1H-pyrazol-1-yl)methyl]phenyl}cyclopropyl acetate]: half-maximal inhibition (IC50) was put at 2 nM.

The molecule `Cc1cc(/C(F)=C/c2ccc(C(C)(C)C(F)(F)F)cc2)nn1Cc1cccc(C(=O)N2CCN(C3CC3)CC2)c1` [Example 39, (4-Cyclopropylpiperazin-1-yl) {3-[(3-{(Z)-1-fluoro-2-[4-(1,1,1-trifluoro-2-methylpropan-2-yl)-phenyl]vinyl}-5-methyl-1H-pyrazol-1-yl)methyl]phenyl}methanone] displayed an IC50 of 2 nM. That is a single-digit nanomolar value.

One may read the IC50 as the concentration at which inhibition is half-maximal. A low value points to inhibition by little substance.
